What was measured:
[1] = biological target: T1, human ASK1 kinase (Homo sapiens, UniProt Q99683); experiment: Determination of ASK1 inhibitor activity (IMAP FP assay of example 52 or AlphaLISA assay of example 53)
T1 sequence (Q99683 1-1374): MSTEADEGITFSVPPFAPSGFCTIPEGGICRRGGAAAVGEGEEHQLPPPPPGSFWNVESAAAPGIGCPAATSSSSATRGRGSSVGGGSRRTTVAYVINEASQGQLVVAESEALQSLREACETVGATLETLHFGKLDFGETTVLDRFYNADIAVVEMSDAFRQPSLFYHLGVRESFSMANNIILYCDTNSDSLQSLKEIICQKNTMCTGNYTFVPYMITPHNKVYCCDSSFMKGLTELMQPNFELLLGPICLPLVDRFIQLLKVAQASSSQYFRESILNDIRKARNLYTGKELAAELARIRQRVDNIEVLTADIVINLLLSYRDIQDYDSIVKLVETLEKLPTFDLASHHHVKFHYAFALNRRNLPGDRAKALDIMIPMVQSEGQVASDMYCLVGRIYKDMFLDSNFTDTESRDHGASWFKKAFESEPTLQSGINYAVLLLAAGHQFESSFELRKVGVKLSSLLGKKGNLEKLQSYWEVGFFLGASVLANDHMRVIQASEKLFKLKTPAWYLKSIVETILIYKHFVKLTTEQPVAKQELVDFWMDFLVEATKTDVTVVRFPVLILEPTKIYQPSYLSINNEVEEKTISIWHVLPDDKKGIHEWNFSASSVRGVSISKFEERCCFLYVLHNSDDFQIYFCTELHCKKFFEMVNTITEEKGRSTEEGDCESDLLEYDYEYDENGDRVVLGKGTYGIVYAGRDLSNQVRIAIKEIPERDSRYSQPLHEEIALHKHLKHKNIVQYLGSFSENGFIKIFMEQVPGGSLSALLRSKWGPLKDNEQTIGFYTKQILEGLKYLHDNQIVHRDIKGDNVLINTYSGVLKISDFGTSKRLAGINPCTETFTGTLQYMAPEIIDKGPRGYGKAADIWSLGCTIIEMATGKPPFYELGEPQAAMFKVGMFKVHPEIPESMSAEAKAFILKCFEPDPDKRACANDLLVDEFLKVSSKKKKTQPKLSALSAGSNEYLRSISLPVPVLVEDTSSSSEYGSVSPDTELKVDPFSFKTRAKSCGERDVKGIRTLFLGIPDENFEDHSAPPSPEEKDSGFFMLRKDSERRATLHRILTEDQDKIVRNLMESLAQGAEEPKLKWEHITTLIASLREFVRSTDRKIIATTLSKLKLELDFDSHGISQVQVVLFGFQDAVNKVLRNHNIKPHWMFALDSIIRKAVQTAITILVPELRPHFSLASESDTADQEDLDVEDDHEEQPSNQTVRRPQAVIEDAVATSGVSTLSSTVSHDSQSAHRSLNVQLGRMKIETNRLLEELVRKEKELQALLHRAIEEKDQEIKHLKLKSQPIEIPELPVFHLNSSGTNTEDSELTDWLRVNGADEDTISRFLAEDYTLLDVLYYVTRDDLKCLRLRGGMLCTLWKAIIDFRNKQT

[2] = system: FCA-induced inflammatory mechanical hypersensitivity
[3] = system: CCI-induced mechanical allodynia; settings: rat CCI model

Row | Compound | IC50 [1] | effect on inflammatory mechanical hypersensitivity caused by FCA (weightbearing) ([2]; dosed orally 24 hours after FCA injection, at 30 mg/kg) | effect on inflammatory mechanical hypersensitivity (FIG. 2, weightbearing) ([2]; rats, 3 mg/kg po and 30 mg/kg po, 24 hours after intraplantar FCA, measured 1 hour after dosing) | effect on mechanical allodynia caused by nerve injury in the CCI model [3]
1 | O=C(NC1CCN(c2nc[nH]c3nccc2-3)CC1)c1ccc(N2CCCC2)cc1 [4-(1-pyrrolidinyl)-N-[1-(1H-pyrrolo[2,3-d]pyrimidin-4-yl)-4-piperidinyl]benzamide] | 25.1 µM | – | – | –
2 | Cc1c[nH]c2ncnc(N3CCC(NC(=O)c4ccccc4)CC3)c12 [Example 17] | – | partially reverse the inflammatory mechanical hypersensitivity | reverses inflammatory mechanical hypersensitivity | partially reversed the mechanical allodynia
